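Exposure lasted 48 hours, with cells grown in 96-well plates and compounds tested at five concentrations. TGI: concentration producing complete growth inhibition.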

We go through eight molecules from PubChem BioAssay (NCI).

What all share (experiment): DTP human tumour cell line panel, 48 h
In experiment [1] the test system is SW-620 colon.
Experiment [2] concerns A549 NSCLC.
Experiment [3] deals with HT29 colon.
Experiment [4] relates to PC-3 prostate.
In experiment [5] the test system is A498 renal.
Experiment [6] deals with DU-145 prostate.
Experiment [7] relates to UACC-62 melanoma.
Experiment [8] deals with NCI-H226 lung.
Experiment [9] concerns SF-295 CNS.
Experiment [10] relates to HCT-116 colon.
The subject of experiment [11] is MDA-MB-435.
The subject of experiment [12] is MDA-N.
The test system of experiment [13] is U251 CNS.
Experiment [14] relates to CAKI-1 renal.
The subject of experiment [15] is TK-10 renal.
Experiment [16] has as its system SN12C renal.
The test system of experiment [17] is UO-31 renal.
In experiment [18] the test system is HOP-62 NSCLC.
Experiment [19] concerns LOX IMVI melanoma.
Experiment [20] has as its system SR leukemia.

One may read the TGI as the concentration giving total growth inhibition. A high value points to less potent growth arrest. Turning to `COc1cc(/C=C2/C[C@H]3[C@@H]4CCC5=CC(=O)CC[C@]5(C)[C@H]4CC[C@]3(C)NC2=O)cc(OC)c1OC`, the TGI was above 100 µM in [1]; above 100 µM in experiment [2]; above 100 µM in [3]; above 100 µM in experiment [4]; 41.6 µM in experiment [5]; above 100 µM in [6]. Also, the TGI in experiment [7] was above 100 µM; in experiment [8], above 100 µM; in [9], 77.7 µM; in experiment [10], above 100 µM; in experiment [11], above 100 µM; in experiment [12], above 100 µM. Besides, the TGI in experiment [13] was 57.1 µM; in experiment [14], above 100 µM; in experiment [15] it was 56.2 µM; in [16] it was above 100 µM; in [17] it was 26.8 µM; in [18] it was above 100 µM.
For the molecule `CC(=O)Oc1ccn2nc(C)c(Cc3c(C)nn4ccc(OC(C)=O)cc34)c2c1`, the concentration for total growth inhibition (TGI) is above 100 µM in [19]; above 100 µM in experiment [1]; above 100 µM in experiment [2]; above 100 µM in experiment [3]; above 10 µM in experiment [4]; above 100 µM in experiment [6]. Moreover, the TGI in experiment [7] was above 100 µM; in [8] it was above 100 µM; in experiment [9], 68.8 µM; in [10], above 100 µM; in experiment [11], 50.4 µM; in experiment [12], above 10 µM. For the same molecule, the TGI in experiment [13], in [20], in [14], in [15], in experiment [16] and in [18] was above 100 µM in each case.
As for `Nc1ccc(-c2nc3cc(F)ccc3s2)cc1Br`, the TGI in [19], in experiment [1], in [2], in experiment [3], in [4] and in experiment [5] was above 100 µM throughout. Besides, the TGI in experiment [6], in experiment [7], in [9], in experiment [10], in experiment [11] and in experiment [12] was above 100 µM each time. For the same molecule, the TGI in experiment [13] is 57.8 µM; in experiment [14] it was above 100 µM; in [16], above 100 µM; in [17], above 100 µM; in experiment [18], above 100 µM.
On to `CCN(CC)CCC(=O)c1ccc(Oc2ccc(C)cc2)cc1`, for which the TGI in experiment [19] was 31 µM; in experiment [1] it was 33.8 µM; in experiment [2], above 100 µM; in experiment [3] it was 35.6 µM; in experiment [4], 38.2 µM; in experiment [6], 95.3 µM. Also, the TGI in experiment [7] was 31.3 µM; in experiment [8] it was 86.8 µM; in experiment [9] it was 36.4 µM; in experiment [10], 31.2 µM; in experiment [11], 32 µM; in experiment [12], 31.5 µM. Besides, the TGI in experiment [13] is 30.7 µM; in experiment [20], above 100 µM; in [14] it was 31.1 µM; in experiment [15], 32.5 µM; in experiment [16], 30.4 µM; in [18], 39.3 µM.
With `CN(C)S(=O)(=O)n1ccnc1`, the TGI in [19], in experiment [1], in experiment [2], in experiment [4], in experiment [5] and in experiment [8] was above 100 µM each time. Besides, the TGI in [9], in [10], in [11], in experiment [12], in [13] and in [14] was above 100 µM throughout. Moreover, the TGI in experiment [15], in experiment [16], in experiment [17] and in experiment [18] was above 100 µM in each case.
For the molecule `Nc1sccc1S(=O)(=O)c1ccsc1N`, the TGI in experiment [19], in experiment [1], in [2], in [3], in experiment [4] and in experiment [5] was above 100 µM throughout. Also, the TGI in experiment [6], in [7], in experiment [8], in experiment [9], in experiment [10] and in experiment [11] was above 100 µM in each case. For the same molecule, the TGI in experiment [12], in experiment [13], in experiment [14], in [15], in experiment [16] and in experiment [17] was above 100 µM each time. Besides, the TGI in experiment [18] is above 100 µM.
With `Cn1ccnc1SC(F)(F)c1nc2ccccc2o1`, the TGI in [1], in experiment [2], in [3], in experiment [4], in experiment [5] and in experiment [6] was above 100 µM throughout. Further, the TGI in experiment [7], in experiment [8], in experiment [9], in experiment [10], in [11] and in experiment [12] was above 100 µM throughout. In addition, the TGI in experiment [13], in experiment [14], in experiment [15], in experiment [16], in experiment [17] and in experiment [18] was above 100 µM in each case.
As for `Cc1cc2c(cc1Cl)SC(NN(C)C)=NS2(=O)=O`, the TGI in experiment [19], in experiment [1], in experiment [2], in experiment [3], in experiment [4] and in [5] was above 10 µM in each case. Moreover, the TGI in [6], in [7], in experiment [8], in [9], in experiment [10] and in experiment [11] was above 10 µM in each case. Further, the TGI in [12], in experiment [13], in experiment [14], in experiment [15], in experiment [16] and in [18] was above 10 µM in each case.
